Experimental data taken from patent US10166236B2, “Pharmaceutical formulations comprising substituted pyrazolo[5,1-c]pyrido[4,3-e][1,2,4]triazines for treating lysosomal storage disorders” (Perlara PBC, priority 2016, dated 2019).

Assays:
[1] = test system: Coriell GM18453 (I1061T/I1061T) cells; assay: Filipin staining of cholesterol in NPC patient fibroblasts; assay type: cell-based, human; settings: 10 μM; for amount of cytoplasmic free/unesterified cholesterol as visualized by filipin staining, relative to vehicle control: 48 hr incubation, FIG. 1
Description: Compound 1 was tested in vitro for its effect on cholesterol localization in NPC fibroblasts. The following experiments utilized Coriell GM18453 (I1061T/I1061T) cells which are immortalized cell lines prepared from NPC patient fibroblasts. These cells have a known deficiency in cholesterol esterification. Compound 1 (FIG. 1B), U18666A (positive control, FIG. 1C), and DMSO (vehicle control, FIG. 1A) were individually dispensed into 96 well In Vitro Scientific glass bottom black walled plates using the Echo acoustic liquid handler for the final concentrations indicated. Cells were suspended in media (DMEM, 5% FBS, 1% P/S, 2 mM L-glutamine) and then added to each well at 1750 cells per well. The final concentration of Compound 1 and […] was 10 μM. After a 48 hr incubation cells were fixed and stained with filipin using components from the Cholesterol Cell Based Detection Kit from Cayman. Filipin was used at a final concentration of 50 μg/mL. Cells were imaged using the ImageXpress from Molecular Devices and analyzed with MetaXpress. […] The experiment was repeated in GM18453 cells except that filipin staining was assessed in one set of wells every 24 hours for a total of five days. FIG. 2A provides an exemplary photomicrograph of a cells treated with vehicle control. There were no notable changes to the filipin staining of the vehicle-treated over the five day culture period, FIG. 2B-2F are representative photomicrographs of the Compound 1-treated cells after 1-5 days in culture, respectively.

NPC1 null worms = assay: Egg count in NPC1 null nematodes (rescue of nematode model of NPC); assay type: in vivo, C. elegans; settings: Day 1 adults; for number of eggs per adult worm relative to DMSO control or SAHA: with or without supplemental cholesterol, p<0.001 relative to DMSO, Student's t-test
Description: This experiment tested the ability of Compound 1 to rescue NPC-1 null nematodes. A population of NPC1 null worms was scaled up on large petri plates (100 mm or 60 mm) to produce a large population of gravid adults. One day prior to assay, the adult worms were bleached to obtain all eggs. Eggs were allowed to hatch overnight in M9 by rocking tubes. On day of assay, the presence of L1 larvae was confirmed. A lawn of HB101 bacteria were grown on NGM agar plates (4 ml). The plates were prepared either with or without exogenous cholesterol. […] An additional set of plates prepared with 25% cremaphor alone was used as a second vehicle control. Fifty to seventy L1 larvae were added to each plate and incubated at room temperature for two days. On day 3, L1 worms had matured into Day 1 adults bearing row of eggs. Eggs were counted microscopically and the average number of eggs per adult worm for each incubation condition was calculated. […] There was no statistically significant difference between treatment with DMSO control in the 25% cremaphor carrier relative to the carrier alone (data not shown).

Molecule | amount of cytoplasmic free/unesterified cholesterol as visualized by filipin staining, relative to vehicle control [1] | amount of cytoplasmic free/unesterified cholesterol (filipin staining), time course ([1]; assessed every 24 hours for five days, FIG. 2) | number of eggs per adult worm relative to DMSO control or SAHA (NPC1 null worms; 25 μM, FIG. 3C) | egg laying deficit of NPC null nematodes (eggs per adult worm) (NPC1 null worms; 75 μM, FIG. 3B) | number of eggs per adult worm relative to DMSO control or SAHA (NPC1 null worms; 0.5%, FIG. 3E)
CN(C)CCCn1ccc2c(nnc3c(-c4ccc(F)cc4)cnn32)c1=O [Compound 1, 11-[3-(Dimethylamino)propyl]-5-(p-fluorophenyl)-2.3.7.8.11-pentazatricyclo[7.4.0.0^2,6]trideca-1(9),3,5,7,12-pentaen-10-one] | increase in the amount of cytoplasmic free/unesterified cholesterol | Increases in the amount of cytoplasmic free/unesterified cholesterol were observed after a 24 hour culture period and the effect was sustained throughout the five day study period | statistically significant increase in the number of eggs per adult worm |  | 
CCN(CC)CCO[C@H]1CC[C@@]2(C)C(=CC[C@@H]3[C@@H]2CC[C@]2(C)C(=O)CC[C@@H]32)C1 [Compound U18666A] | increase in the amount of cytoplasmic free/unesterified cholesterol |  |  | significantly exacerbates the egg laying deficit | 
cyclodextrin |  |  |  |  | statistically significant increase in the number of eggs per adult worm
